Source: patent US20240325557A1, “TREATMENT OF CANCER” (INNATE PHARMA, priority 2020, published 2024)
pKd: −log10 of the molar value.

How the values were obtained:
[1] = failing prior chemotherapy; cited from earlier work
[2] = 349 patients; cited from earlier work
[3] = molecular target: T1, Hu-Nectin4 IgC1C2-V5 (modified Nectin-4 lacking the Ig-like V domain, C1C2 construct) (Homo sapiens, UniProt Q96NY8); assay: Flow cytometry binding to cells expressing the Nectin-4 C1C2 construct
T1 construct: expressed in transfected cells; host or cells: CHO
T1 sequence (Q96NY8 148-510): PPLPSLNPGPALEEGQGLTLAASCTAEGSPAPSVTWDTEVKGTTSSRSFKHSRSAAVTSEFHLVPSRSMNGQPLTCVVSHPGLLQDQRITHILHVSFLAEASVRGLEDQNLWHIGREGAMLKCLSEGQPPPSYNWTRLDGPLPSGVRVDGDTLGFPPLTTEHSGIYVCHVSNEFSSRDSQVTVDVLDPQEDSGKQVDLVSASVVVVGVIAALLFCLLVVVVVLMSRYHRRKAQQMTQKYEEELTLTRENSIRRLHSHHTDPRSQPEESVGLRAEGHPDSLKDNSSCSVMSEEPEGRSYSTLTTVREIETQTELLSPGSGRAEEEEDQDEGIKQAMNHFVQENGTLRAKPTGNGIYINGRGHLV
Experimental: (§1) The characterization of the binding of the antibodies on Nectin-4 domains was performed by flow cytometry using cells made to express the wild-type human Nectin-4 protein and cells made to express a modified Nectin-4 having the Ig-like C2 type 1 and the Ig-like C2 type 2 domains and lacking the Ig-like V domain (the C1C2 construct). The latter protein additionally bears a V5 tag for flow cytometry cell sorting, and cells were used as Nectin4-C1C2-V5 sorted cells.
Wild-type Nectin-4 (the CI.3C8 cell line), a C2 construct (containing the Ig-like C2 type 2 domain and lacking both the V and the C1 domains) and the C1C2 construct allow the determination of whether test antibodies bind to the V or different C domains. Briefly, nucleic acid sequences encoding different human Nectin-4 domains were amplified by PCR. The PCR products were inserted into an expression vector at appropriate restriction sites. A leader peptide, and for C1C2 and C2 an N-terminal V5 tag having the amino acid sequence […] (SEQ ID NO: 41), were added, and expression at the surface of cells was confirmed by flow cytometry. The amino acid sequences of the resulting different human Nectin-4 domain fragment-containing proteins are shown below (V5 tag underlined). The vectors were then transfected into the CHO cell line to obtain stable clones expressing the different Nectin-4 domain proteins at the cell surface.

[4] = system: SUM190 cells; assay: In vivo efficacy of ADCs, SUM190 mouse model of human breast cancer (Example 9); conditions: single i.v. injection 3 mg/kg; antibodies conjugated to ggfg-Dxd, DAR=8
Experimental: When tumors reached a volume between 195 and 250 mm3, mice were randomized into groups of 9 mice for intravenous treatment with a single injection of 3 mg/kg of camptothecin ADCs. Tumor growth were followed twice a week. Kaplan Meier survival curves were established by using GraphPad Prism V7 software according to the following criteria: When the tumor volume reached 1500 mm3, mice were euthanized and considered dead on the day of sacrifice (D).

[5] = molecular target: T2, wild-type human Nectin-4 protein (huNectin4-his-BirA) (Homo sapiens, UniProt Q96NY8); assay: Affinity determination by SPR (Biacore T200); format: binding; conditions: 25° C.
T2 sequence (Q96NY8 with tags, fused parts or gaps): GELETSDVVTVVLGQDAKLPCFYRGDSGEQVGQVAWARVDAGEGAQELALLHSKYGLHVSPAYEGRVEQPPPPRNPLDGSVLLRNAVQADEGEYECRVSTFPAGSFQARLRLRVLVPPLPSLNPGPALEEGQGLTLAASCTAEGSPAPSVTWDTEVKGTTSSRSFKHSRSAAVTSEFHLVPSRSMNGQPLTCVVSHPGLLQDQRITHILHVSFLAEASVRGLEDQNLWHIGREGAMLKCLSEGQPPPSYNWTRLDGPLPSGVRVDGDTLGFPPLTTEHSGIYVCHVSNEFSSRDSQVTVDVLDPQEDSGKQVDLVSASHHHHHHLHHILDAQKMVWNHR
Experimental: Antibodies were tested for binding affinity to the wild-type human Nectin-4 protein by SPR (Surface Plasmon Resonance) methods. Measurements were performed on a Biacore T200 apparatus (Biacore GE Healthcare) at 25° C. Sensorgrams were analyzed with Biacore T100 Evaluation software. A CMR Sensor Chip with immobilized Protein A at about 600 RU was used. Anti-Nectin-4 antibodies were captured onto the Protein-A chip (antibodies diluted to 1 μg/ml in HBS-EP+1× buffer and injected over 120s at 40 μL/min). Recombinant human monomeric huNectin4-his-BirA protein was injected at different concentrations in a range from 100 nM to 1.56 nM over captured antibodies (HuNectin4-His-BirA diluted in HBS-EP+1× in ½ dilutions, injected over 120s at 40 μl/min) and allowed to dissociate for 600s. The chip was regenerated with NaOh 10 mM 2× for 30s at 40 μl/min. The sensorgram sets were fitted using the 1:1 kinetic binding model or two state reaction model, as a function of the profile of the curves.

[6] = molecular target: T3, wild-type human Nectin-4 (Homo sapiens, UniProt Q96NY8); assay: Flow cytometry binding to wild-type Nectin-4 expressing CHO cells
T3 construct: expressed in transfected cells; host or cells: CHO (huNectin4 Cl.3C8)
T3 sequence (Q96NY8 32-510): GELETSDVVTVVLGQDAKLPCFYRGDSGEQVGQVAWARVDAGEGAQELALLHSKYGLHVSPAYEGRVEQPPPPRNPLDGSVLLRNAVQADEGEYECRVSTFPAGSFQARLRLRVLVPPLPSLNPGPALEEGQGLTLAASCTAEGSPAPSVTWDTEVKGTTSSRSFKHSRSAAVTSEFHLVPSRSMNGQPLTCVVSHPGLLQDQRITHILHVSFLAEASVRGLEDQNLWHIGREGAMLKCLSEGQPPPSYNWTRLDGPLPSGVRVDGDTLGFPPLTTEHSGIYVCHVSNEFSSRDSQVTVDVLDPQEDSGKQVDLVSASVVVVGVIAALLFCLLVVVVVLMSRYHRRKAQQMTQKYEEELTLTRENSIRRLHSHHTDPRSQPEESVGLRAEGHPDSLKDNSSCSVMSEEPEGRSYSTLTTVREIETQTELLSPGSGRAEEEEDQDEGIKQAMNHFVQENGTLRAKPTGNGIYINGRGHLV
Experimental: plates of hybridoma supernatants were tested for binding on the wild-type human Nectin-4 expressing CHO cell line by flow cytometry. Briefly, Nectin-4 expressing cells were used at 0.2×10^6 cells by well in a buffer of PBS, BSA 0.5%, EDTA 5 mM. The first antibody was incubated with cells for 1h at +5±3° C. in 50 μL of supernatant. […] Acquisition HTFC flow cytometer (Intellicyt), with data analysis on ForeCyt™ software.
as §1
Wild-type Nectin-4 (the CI.3C8 cell line), a C2 construct (containing the Ig-like C2 type 2 domain and lacking both the V and the C1 domains) and the C1C2 construct allow the determination of whether test antibodies bind to the V or different C domains. Briefly, nucleic acid sequences encoding different human Nectin-4 domains were amplified by PCR. The PCR products were inserted into an expression vector at appropriate restriction sites. […]

[7] = system: rat Nectin-4; assay: Flow cytometry species cross-reactivity on CHO cells; format: binding
Experimental: Anti-Nectin-4 antibodies were tested by flow cytometry for binding to different CHO cell lines made to express respectively the mouse, cynomolgus and rat Nectin-4 protein (including an N-terminal V5 tag not shown in the sequences below).

[8] = UC patients; cited from earlier work
[9] = system: MC-38 cells that endogenously express MDR1 P-glycoprotein engineered to express Nectin-4; assay: In vitro efficacy of ADCs in Pgp-expressing cancer model (CTG, five days); format: cell-based; conditions: presence or absence of cyclosporin A (5 μM); 150 nM ADC, normalized to control antibody
Experimental: MC-38 cells that endogenously express MDR1 P-glycoprotein (Pgp) were engineered to express Nectin-4 and cultured in DMEM+10% FBS. Cells were either treated with vehicle (DSMO) or with cyclosporin A (5 μM, stock solution in DMSO) known to act as an inhibitor of Pgp, in presence of ADCs.
The ADCs and the equivalent isotype control ADCs were used at dose range from 150 to 2.3 10^−3 nM. After five days of co-incubation with cells, cell viability was measured by addition of Cell Titer Glo™ (CTG) substrate. Luminescence vs. Ab concentration was plotted.

[10] = system: SUM185 cells; assay: In vitro ADC cytotoxicity, 5 days, CTG; format: cell-based, human; conditions: model of anti-HER2 resistance
Experimental: Luminescence vs. Ab concentration was plotted on graph.
For each ADC, a concentration range of ADC was incubated with nectin-4-expressing cells. After incubation, CTG substrate was added at 1/1 ratio and the luminescent signal was read with a plate reader (Enspire). It allowed quantifying the ATP present (indicator of metabolically active cells) which was proportional to cell viability.
This setting is used as a model of anti-HER2 resistance.
For each ADC, a concentration range of ADC was incubated with nectin-4-expressing cells. After incubation, CTG substrate was added at 1:1 ratio and the luminescent signal was read with a plate reader (Enspire), allowing quantification of the ATP present (indicator of metabolically active cells) which was proportional to cell viability.

rat Nectin-4, sequence (as listed by the source): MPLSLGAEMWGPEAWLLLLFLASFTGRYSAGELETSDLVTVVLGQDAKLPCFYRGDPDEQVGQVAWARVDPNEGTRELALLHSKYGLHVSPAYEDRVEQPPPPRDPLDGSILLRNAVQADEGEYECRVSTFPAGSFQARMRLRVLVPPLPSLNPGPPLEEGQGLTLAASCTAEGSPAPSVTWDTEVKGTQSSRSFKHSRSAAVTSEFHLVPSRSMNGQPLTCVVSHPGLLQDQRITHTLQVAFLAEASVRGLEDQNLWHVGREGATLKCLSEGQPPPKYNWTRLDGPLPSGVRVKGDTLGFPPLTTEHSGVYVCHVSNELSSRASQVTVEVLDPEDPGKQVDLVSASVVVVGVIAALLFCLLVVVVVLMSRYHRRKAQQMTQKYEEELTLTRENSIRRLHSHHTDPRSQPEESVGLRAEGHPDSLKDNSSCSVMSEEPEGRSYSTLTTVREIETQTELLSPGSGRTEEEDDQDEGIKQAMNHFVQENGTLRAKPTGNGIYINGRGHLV

For `CC[C@@]1(O)C(=O)OCc2c1cc1n(c2=O)Cc2cc3c([N+](=O)[O-])cccc3nc2-1` [RFS2000], the activity in patients [1] is given as “did not exert significant activity”.

For `CC[C@@]1(O)C(=O)OCc2c1cc1n(c2=O)Cc2c-1nc1cc(F)c(C)c3c1c2[C@@H](N)CC3` [exatecan], the “efficacy in addition to gemcitabine versus gemcitabine alone” value [2] is given as “not superior in efficacy to gemcitabine alone”.

For Enfortumab [reference compound], the “binding to the C1C2 construct” value [3] was “lost all binding to the C1C2 construct”, the “control of tumor growth” value [4] was “no longer showed the ability to control tumor growth” and the pKd [5] was 7.86. For the same compound, the ka [5] was 340000 M⁻¹ s⁻¹, the kd [5] was 0.0047 s⁻¹ and the “binding to whole (wild-type) human Nectin-4 protein” value [6] was “bound to the whole Nectin-4 protein”. For the same compound, the “binding to rat Nectin-4 expressing CHO cells” value [7] was “bind to rat Nectin-4”.

For PADCEV, the “CR (complete response rate)” value [8] is given as 12%, the “ORR (objective response rate)” value [8] is given as 44% and the “discontinuation due to clinical symptoms” value [8] is given as 5%. For the same compound, the “discontinuation due to progressive disease as assessed by RECIST” value [8] was 48%, the “patients that discontinued experienced adverse events, notably neuropathy” value [8] was 18% and the “influence of Pgp on anti-tumor activity” value [9] was “negatively affected by Pgp”. The “killing of SUM185 cells (cell viability)” value [10] was “able to kill the SUM185 more efficiently than ENHERTU”.
